Data on three compounds can be found in patent US20230277508A1, “USE OF COMPOUND AS CYP2E1 INHIBITOR” (SHANGHAI LING XI BIOTECHNOLOGY DEVELOPMENT CO., LTD., priority 2020, published 2023).

By IC50 is commonly meant the concentration that inhibits the measured activity by half.

Type in all cases: biochemical
One series concerns the target T1, CYP2A6 (Homo sapiens, UniProt P11509).
T1 construct: With a mixed liver microsome of a healthy individual as a research object; from tissue; host or cells: mixed (pooled) human liver microsomes of healthy individuals
The experiment in a line: Determination of selectivity of a CYP2E1 inhibitor: CYP2A6. The following applies: mixed human liver microsome, 2.5 μM coumarin probe; read-out: IC50 for 2A6 inhibition. An excerpt:
(§1) With a mixed liver microsome of a healthy individual as a research object, probe drugs CYP1A2, CYP2A6, CYP2B6, CYP2C8, CYP2C9, CYP2C19, CYP2D6, CYP2E1, and CYP3A4 were selected to determine an in vitro inhibitory effect of an inhibitor to be tested on the metabolism of the probe drugs CYP1A2, CYP2A6, CYP2B6, CYP2C8, CYP2C9, CYP2C19, CYP2D6, CYP2E1, and CYP3A4 for the mixed liver microsome of the healthy human, and the selectivity of the inhibitor to be tested for a CYP2E1 inhibitory effect was evaluated.
(§2) The CYP1A2 probe is 6.25 μM to 800 μM phenacetin or 27.5 μM to 12,520 μM caffeine; • the CYP2A6 probe is 0.156 μM to 20 μM coumarin or 12.5 μM to 2,000 μM nicotine; • the CYP2B6 probe is 7.8 μM to 500 μM bupropion or 0.25 mM to 30 mM cyclophosphamide; • the CYP2C8 probe is 2.5 μM to 80 μM paclitaxel or 0.125 μM to 128 μM amodiaquine; • the CYP2C9 probe is 31.25 μM to 2,000 μM tolbutamide or 0.1 μM to 200 μM diclofenac; • the CYP2C19 probe is 3.9 μM to 500 μM omeprazole or 1.95 μM to 1,000 μM mephenytoin; • the CYP2D6 probe is 0.625 μM to 96 μM dextromethorphan or 0.0195 μM to 80 μM propafenone; and • the CYP3A4 probe is 0.39 μM to 50 μM midazolam or 1.98 μM to 1,000 μM testosterone.
(§3) An incubation system in a total volume of 100 μL was adopted, including a substrate, an inhibitor of different concentrations, a liver microsomal protein, and PBS. […]
For orientation: Microsomes from liver hold many membrane-bound enzymes, among them those of drug oxidation.

In series [1] the target is T2, human liver microsome CYP2E1 (Homo sapiens, UniProt P05181).
T2 construct: metabolic activity of a mixed liver microsome CYP2E1 of a healthy individual; from tissue; host or cells: mixed (pooled) human liver microsomes of healthy individuals
The experiment in a line: Determination of IC50 for a CYP2E1 inhibitory effect (CZX probe, mixed liver microsome). The following applies: for inhibitory effect on CYP2E1 (in words): in vitro, method of Example 8; for IC50: mixed liver microsome of healthy individuals 0.3 mg/mL, 62.5 μM CZX, 1 mM NADPH, 30 min, read-out: IC50 for 2E1 inhibition. How it is done:
CZX was used as a probe substrate to detect an inhibitory effect of an inhibitor to be tested on the metabolic activity of a mixed liver microsome CYP2E1 of a healthy individual (IC50: half inhibition concentration; Ki: inhibition constant; the smaller the IC50 and the smaller the Ki, the higher the inhibition intensity of the inhibitor), thereby determining an inhibitory effect of the inhibitor to be tested on the human liver microsome CYP2E1.
An incubation system in a total volume of 100 μL was adopted, including a substrate, an inhibitor of different concentrations, a liver microsomal protein, and phosphate-buffered saline (PBS). The incubation system was pre-incubated in a 37° C. water bath for 5 min, reduced coenzyme was added to allow a reaction for 30 min, and then the reaction was terminated in an ice bath. In a specific experiment, a concentration of an inhibitor can be selected as required.
In this example, the incubation system includes 62.5 μM CZX, 100 mM (pH=7.4) PBS, 0.3 mg/mL liver microsomal protein, and 1 mM NADPH.
In this example, the reaction is terminated with 1 mL of ethyl acetate. In other preferred examples, the reaction may also be terminated with 1 mL of methyl tert-butyl ether (MTBE), 1 mL of diethyl ether, or 100 μL of methanol.

Another series deals with T3, CYP2C9 (Homo sapiens, UniProt P11712).
T3 construct: With a mixed liver microsome of a healthy individual as a research object; from tissue; host or cells: mixed (pooled) human liver microsomes of healthy individuals
The experiment in a line: Determination of selectivity of a CYP2E1 inhibitor: CYP2C9. The following applies: mixed human liver microsome, 250 μM tolbutamide probe; read-out: IC50 of the inhibition for CYP2C9.
Text: as §1, §2, §3

T2 sequence (P05181 whole entry): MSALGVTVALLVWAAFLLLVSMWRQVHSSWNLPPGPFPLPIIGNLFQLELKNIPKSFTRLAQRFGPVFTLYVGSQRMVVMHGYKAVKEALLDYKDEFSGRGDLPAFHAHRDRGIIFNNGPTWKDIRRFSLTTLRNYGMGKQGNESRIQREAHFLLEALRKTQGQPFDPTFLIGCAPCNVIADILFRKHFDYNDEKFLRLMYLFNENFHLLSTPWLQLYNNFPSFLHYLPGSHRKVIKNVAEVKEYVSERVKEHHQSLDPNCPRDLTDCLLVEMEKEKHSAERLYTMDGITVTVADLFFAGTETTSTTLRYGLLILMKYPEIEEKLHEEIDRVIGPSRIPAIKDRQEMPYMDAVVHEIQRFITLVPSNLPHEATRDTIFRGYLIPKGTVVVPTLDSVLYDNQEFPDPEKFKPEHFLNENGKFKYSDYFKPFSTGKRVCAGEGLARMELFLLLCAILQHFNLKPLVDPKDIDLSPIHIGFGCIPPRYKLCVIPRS
T3 sequence (P11712 whole entry): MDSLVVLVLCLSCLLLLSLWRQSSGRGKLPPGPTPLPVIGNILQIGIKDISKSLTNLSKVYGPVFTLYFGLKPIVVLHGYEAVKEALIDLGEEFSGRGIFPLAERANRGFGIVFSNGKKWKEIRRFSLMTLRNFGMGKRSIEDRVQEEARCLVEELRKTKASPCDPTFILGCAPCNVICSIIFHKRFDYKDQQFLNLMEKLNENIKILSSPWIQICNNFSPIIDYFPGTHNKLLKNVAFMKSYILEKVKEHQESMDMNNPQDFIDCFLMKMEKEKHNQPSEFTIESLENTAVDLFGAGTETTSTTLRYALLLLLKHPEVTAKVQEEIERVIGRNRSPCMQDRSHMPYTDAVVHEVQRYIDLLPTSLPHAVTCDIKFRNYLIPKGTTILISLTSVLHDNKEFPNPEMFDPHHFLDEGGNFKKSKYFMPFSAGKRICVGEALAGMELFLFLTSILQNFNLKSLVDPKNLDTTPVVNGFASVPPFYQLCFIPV
T1 sequence (P11509 whole entry): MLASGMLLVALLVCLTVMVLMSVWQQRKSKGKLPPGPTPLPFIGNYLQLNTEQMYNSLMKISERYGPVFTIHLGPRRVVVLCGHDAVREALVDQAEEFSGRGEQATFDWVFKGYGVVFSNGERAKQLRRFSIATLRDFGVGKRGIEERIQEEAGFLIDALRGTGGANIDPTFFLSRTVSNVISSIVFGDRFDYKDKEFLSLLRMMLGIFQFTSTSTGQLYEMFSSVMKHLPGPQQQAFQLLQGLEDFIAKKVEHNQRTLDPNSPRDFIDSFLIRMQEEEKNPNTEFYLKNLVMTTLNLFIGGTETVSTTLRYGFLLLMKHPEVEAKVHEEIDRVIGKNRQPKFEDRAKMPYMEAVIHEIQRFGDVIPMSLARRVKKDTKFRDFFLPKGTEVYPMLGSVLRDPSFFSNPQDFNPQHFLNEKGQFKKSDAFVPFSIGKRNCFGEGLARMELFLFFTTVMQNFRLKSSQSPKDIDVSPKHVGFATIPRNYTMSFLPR

`CCc1nc(COC(=O)c2cccn2Cc2ccncc2)cs1` [SMI1]: the IC50 at CYP2A6 stood at 55.6 µM; in series [1], 7.99 µM; at CYP2C9, 1.86 µM. In series [1], the “inhibitory effect on CYP2E1 (in words)” value was “significant inhibitory effect”.
For the compound `CO/N=C(\C)c1scnc1C` [SMI8], in series [1], the “inhibitory effect on CYP2E1 (in words)” value is on record as “significant inhibitory effect” and the IC50 was determined as 17 µM.
For `COc1cccc(/C=C/C(=O)c2scnc2C)c1` [SMI10], in series [1], the “inhibitory effect on CYP2E1 (in words)” value is recorded as “slight inhibitory effect” and the IC50 is 115 µM.
